# Source: patent US20040033967A1, “Alkylated hexitol nucleoside analogues and oligomers thereof” (priority 2000, published 2004)
# Tests used:
# Format in all cases: binding
# complementary RNA = assay: Thermal stability of octameric HNA sequences versus RNA; conditions: octamers versus RNA, entries C and D
# Text: Hybridisation is the sequence specific base pair hydrogen bonding of bases of the oligonucleotide to bases of target RNA or DNA Such base pairs are said to be complementary to one another. In determining the extent of hybridization of an oligonucleotide to a complementary nucleic acid, the relative ability of an oligonucleotide to bind to the complementary nucleic acid may be compared by determining the melting temperature of a particular hybridisation complex. The melting temperature (Tm), a characteristic physical property of double helices, denotes the temperature in degrees centigrade, at which 50% helical (hybridized) versus coil (unhybridized) forms are present. Tm is measured by using the UV spectrum to determine the formation and breakdown (melting) of the hybridisation complex. Base stacking which occurs during hybridisation, is accompanied by a reduction in UV absorption (hypochromicity). Consequently, a reduction […]. The higher the Tm, the greater the strength of the bonds between the strands. The results in Table 3 confirm the results of Table 2 (example 35). […] The effect is however less than for the duplexes containing ANA or those containing the 5-methyl modification (entry E with a ΔTm/modification=1° C. and C with ΔTm/modification=2° C., respectively). […]
# HNA complement = assay: Tm of hexameric hexitol sequences hybridised with HNA complement; conditions: hexamers
# Text: (§1) Hybridisation is the sequence specific base pair hydrogen bonding of bases of the oligonucleotide to bases of target RNA or DNA Such base pairs are said to be complementary to one another. In determining the extent of hybridization of an oligonucleotide to a complementary nucleic acid, the relative ability of an oligonucleotide to bind to the complementary nucleic acid may be compared by determining the melting temperature of a particular hybridisation complex. The melting temperature (Tm), a characteristic physical property of double helices, denotes the temperature in degrees centigrade, at which 50% helical (hybridized) versus coil (unhybridized) forms are present. Tm is measured by using the UV spectrum to determine the formation and breakdown (melting) of the hybridisation complex. Base stacking which occurs during hybridisation, is accompanied by a reduction in UV absorption (hypochromicity). Consequently, a reduction […]. The higher the Tm, the greater the strength of the bonds between the strands.
# As an example a study with pyrimidine hexamers was done as depicted in Table 2. […]
# RNA complement = assay: Tm of hexameric hexitol sequences hybridised with RNA complement; conditions: hexamers
# Text: as §1
# However, this increase is less pronounced than the increase in thermal stability obtained by modifying the nucleobase with a methyl substituent in the 5-position (ΔTm=+1.1° C./modification), (compare entry A and D). […]
structure (smiles),measurement,setting,value
"COC1O[C@H](CO)[C@@H](O)C[C@@H]1n1cc(C)c(=O)[nH]c1=O (stereo partly drawn) [2.2, Methyl 2-(thymin-1-yl)-2,3-dideoxy-D-arabino-hexopyranoside]",increase in Tm compared with the hexitol T reference,complementary RNA,1.6 °C
same,"ΔTm compared to HNA, pairing with hexitol oligonucleotides","HNA complement; hexitol (HNA, ANA) complements",≈ +0.8 ° C./modification
same,"ΔTm compared to HNA, pairing with RNA sequences",RNA complement,≈ +0.3 ° C./modification
"CO[C@@H]1[C@H](O)[C@@H](CO)OC[C@H]1n1ccc(=O)[nH]c1=O [1.1, 1,5-anhydro-3-O-methyl-2-(uracil-1-yl)-2-deoxy-altro-hexitol]",ΔTm compared to the unmodified HNA:HNA duplex,"HNA complement; complementary HNA, Table 2",+0.6 ° C./modification
